From PMC9321663, “The DevTox Germ Layer Reporter Platform: An Assay Adaptation of the Human Pluripotent Stem Cell Test” (Toxics, 2022)
pIC50: −log10 of the molar value. Like-named read-outs stand apart in the source and are kept apart here.

Columns and labels:
[1] = cited from earlier work; for Development Toxicant Classification: Table S2; for Classification: developmental toxicant classification (Teratogen / Non-Teratogen) of reference and training chemicals, ref DOI per chemical: 10.1093/toxsci/kft239, 10.1093/toxsci/kfaa014, 10.1177/026119290203000204, 10.1038/s41598-020-59542-x; for DT Class.: developmental toxicant classification
[2] = system: SOX17 (endoderm marker) in RUES2-GLR cells; test: DevTox GLR-Endo assay: increase in percent SOX17-positive cells (AEID 3093, Sox17_up); assay type: cell-based, human; conditions: for HIT−CALL: tcpl plot AEID3093, COFF 20.3; for Emax: Homo sapiens
Description: (§1) The total test chemical incubation period was 48 h.
(§2) (Supplementary Materials).

[3] = system: SOX17 (endoderm marker) in RUES2-GLR cells; test: DevTox GLR-Endo assay: decrease in percent SOX17-positive cells (AEID 3094, Sox17_dn); conditions: for hit call designation (in words): DevTox GLR-Endo prediction against developmental toxicant classification; for Hit Call: Table S2, SOX17-positive cells, cutoff 3*bmad; for DevTox ACC: Table S2, percent SOX17-positive cells; for HIT−CALL: tcpl plot AEID3094, COFF 20.3; for DevTox-GLR Endo ACC: activity concentration at cutoff, SOX17-positive cells; for effect on SOX17-positive cells (in words): 48 h exposure during directed endoderm differentiation
Procedure, shortened: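 RUES2-GLR cells under endoderm differentiation exposed to test chemicals for 48 h in total, with 0.2% DMSO solvent control and SB431542 (1 µM) as developmental-toxicant control. Endpoints: decrease in total cell count and in percent SOX17-positive cells; n = 4 biological replicates minimum.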

RUES2-GLR cells = test: in vitro; conditions: for Emax: Homo sapiens, read-out: Cell Count % Max Inhibition
[4] = system: SOX2 (ectoderm and pluripotency marker) in RUES2-GLR cells; test: DevTox GLR-Endo assay: increase in percent SOX2-positive cells (AEID 3095, Sox2_up); conditions: for MAX_MEAN: tcpl plot AEID3095, maximum mean response; for MAX_MED: tcpl plot AEID3095, maximum median response
[5] = system: o/c ratio in H9 embryonic stem cells; conditions: Teratogen Index, o/c ratio; cited from earlier work
[6] = system: BRA (mesoderm marker) in RUES2-GLR cells; test: DevTox GLR-Endo assay: increase in percent BRA-positive cells (AEID 3096, Bra_up); assay type: cell-based, human; conditions: for HIT−CALL: tcpl plot AEID3096, COFF 0.774; for MAX_MEAN: tcpl plot AEID3096, maximum mean response; for MAX_MED: tcpl plot AEID3096, maximum median response
Description: as §1, §2

H9 embryonic stem cells = conditions: concentration at cell viability cutoff; cited from earlier work
[7] = system: SOX17 in H9 human ESC line; conditions: SOX17 half-maximal inhibition concentration; read-out: hPST IC50; cited from earlier work
[8] = DevTox GLR-Endo assay: decrease in total cell count, cytotoxicity (AEID 3098, CellCount_dn); conditions: human, RUES2-GLR cells under directed endoderm differentiation
H9 human ESC line = conditions: cited from earlier work
[9] = chemicals common with quickPredict
[10] = tcpl plot AEID3093, maximum mean response, read-out: MAX_MEAN
[11] = tcpl plot AEID3093, maximum median response, read-out: MAX_MED
[12] = Homo sapiens, read-out: DevTox % Max Inhibition
[13] = Homo sapiens, read-out: MAX_MEAN
[14] = Homo sapiens, read-out: MAX_MED
[15] = Homo sapiens, read-out: ga (winning model), tcpl plot AEID3094, gain parameter of winning curve fit (log concentration, µM axis), hit calls only (converted)
[16] = Homo sapiens, read-out: tp (winning model)
[17] = Homo sapiens, 48 h, read-out: DevTox-GLR Endo AC50 (µM), SOX17 half-maximal activity concentration, 48 h exposure
[18] = cytotoxicity half-maximal concentration

Row | SMILES | Development Toxicant Classification [1] | Classification [1] | DT Class. [1, 9] | HIT−CALL [2] | Hit Call [3] | DevTox ACC ([3]; 48 h exposure) [µM] | HIT−CALL [3] | MAX_MEAN [4] [Percent Activity] | MAX_MED [4] [Percent Activity] | quickPredict TI [5] [µM] | HIT−CALL [6] | MAX_MEAN [6] [Percent Activity] | MAX_MED [6] [Percent Activity] | Emax [2, 10] [%] | Emax [2, 11] [%] | Emax [3, 12] [%] | Emax [3, 13] [%] | Emax [3, 14] [%] | Emax (RUES2-GLR cells) [%] | Cell Count ACC (RUES2-GLR cells; human, 48 h) [µM] | other results
1 | C[C@@H]1C[C@H]2[C@@H]3CCC4=CC(=O)C=C[C@]4(C)[C@@]3(F)[C@@H](O)C[C@]2(C)[C@@]1(O)C(=O)CO [Dexamethasone] | Positive | Teratogen | Pos | 0 | Negative | >200 | 1 | 0.622 | 0.482 | 37.7 | 0 | 0.923 | 0.979 |  |  |  |  |  |  |  | MAX_MEAN ([2]; tcpl plot AEID3093, maximum mean response): −0.0942 Percent Activity; MAX_MED ([2]; tcpl plot AEID3093, maximum median response): 0.457 Percent Activity; hit call designation (in words) [3]: borderline calls; ga (winning model) ([3]; tcpl plot AEID3094, gain parameter of winning curve fit (log concentration, µM axis), hit calls only): −6.88; MAX_MEAN ([3]; tcpl plot AEID3094, maximum mean response): 20.7 Percent Activity; tp (winning model) ([3]; tcpl plot AEID3094, top of winning curve fit (Hill or gain-loss), hit calls only): 41.8; Cell Count ACC (RUES2-GLR cells): 13.83 µM; DevTox-GLR Endo CC (RUES2-GLR cells): 13.83 µM; effect on cell count (in words) (RUES2-GLR cells): significant cell loss that did not impact SOX17-positive populations
2 | CC(C)(c1ccc(O)cc1)c1ccc(O)cc1 [Bisphenol A] | Positive | Teratogen | Pos | 0 | Positive | 31.7467 | 1 | 4.11 | 3.32 |  |  |  |  | 9.9 | 10.7 | 102 | 102 | 102 | 94.4 | 21.1157 | AC50 [3, 15]: 38.9 µM; Emax [3, 16]: 102%; DevTox-GLR Endo ACC ([3]; 48 h exposure): 31.75 µM; DevTox-GLR Endo CC (RUES2-GLR cells; human, 48 h): 21.12 µM; AC50 ([4]; Homo sapiens, read-out: ga (winning model)): 38 µM; Emax [4, 16]: 3.24%; quickPredict CV (H9 embryonic stem cells): 39.4 µM
3 | O=C1CCC(N2C(=O)c3ccccc3C2=O)C(=O)N1 (stereo not drawn) [Thalidomide] | Positive | Teratogen | Pos | 0 | Positive | 0.2523 | 1 | 0.64 | 0.473 | 1.27 | 0 | 0.925 | 0.968 | 4.62 | 3.35 | 79.1 | 78 | 79.1 | 19.5 | >200 | pIC50 [7]: 6.30; DT Class. ([1]; chemicals common with hPST): Pos; Developmental Toxicant Classification ([1]; reference chemicals): Positive; effect on SOX17-positive cells (in words) [3]: significant reductions in the SOX17-positive sub-population; effect on SOX17-positive cells (in words) ([3]; listed as thalidomide): concentration-dependent loss of SOX17-positive cells; pIC50 ([3]; Homo sapiens, 48 h): 5.77; AC50 [3, 17]: 1.64 µM; AC50 [3, 15]: 1.64 µM; Emax [3, 16]: 81.4%; DevTox-GLR Endo ACC ([3]; 48 h exposure): 0.25 µM; % Max Inhibition ([3]; maximum inhibition of SOX17-positive cells, reference chemical testing, 48 h exposure): 58%; effect on cell counts (in words) (RUES2-GLR cells): cell counts remained constant; CC50 at 48 h [8]: > 200 µM; hPST TC50 (H9 human ESC line; [18]): >200 µM; hPST TC50 (H9 human ESC line; hPST cytotoxicity): > 200 µM
4 | NC(=O)N1c2ccccc2C=Cc2ccccc21 [Carbamazepine] | Positive | Teratogen | Pos | 0 | Positive | 64.024 | 1 | 0.534 | 0.576 | 2.29 | 1 | 1.14 | 1.04 | 12.3 | 12.1 | 52.2 | 52.1 | 52.2 | 39.1 | 57.7753 | pIC50 [7]: 7.10; DT Class. ([1]; chemicals common with hPST): Pos; AC50 [3, 17]: 103 µM; AC50 [3, 15]: 102 µM; Emax [3, 16]: 65.3%; DevTox-GLR Endo ACC ([3]; 48 h exposure): 64.02 µM; DevTox-GLR Endo CC (RUES2-GLR cells; human, 48 h): 57.78 µM; CC50 at 48 h [8]: 137 µM; hPST TC50 (H9 human ESC line; [18]): 0.19 µM; hPST TC50 (H9 human ESC line; hPST cytotoxicity): 0.19 µM
5 | Cc1cn([C@H]2C=C[C@@H](CO)O2)c(=O)[nH]c1=O [Stavudine] | Positive | Teratogen | Pos | 0 | Negative | >200 | 0 | 1.54 | 0.512 | 32.5 | 1 | 1.06 | 1.06 | 8.07 | 10.6 | 11.4 | 13.5 | 11.4 | 23.9 | 90.2805 | hit call designation (in words) [3]: false negative; Emax ([3]; Homo sapiens, read-out: maximum observed effect level class (% max inhibition)): 0 to 20%; effect on cell count (in words) (RUES2-GLR cells): significant decreases in cell count; DevTox-GLR Endo CC (RUES2-GLR cells; human, 48 h): 90.28 µM; effect on cell count (in words) (RUES2-GLR cells; human, 48 h): significant cell loss that did not impact SOX17-positive populations
